Experimental data from patent US6291671A, “Process for producing drug complexes” (Daiichi Pharmaceutical Co., Ltd., priority 1996, dated 2001).
Where two headings read alike, the source gives them in different places. * marks the point of attachment. Exatecan = CC[C@@]1(O)C(=O)OCc2c1cc1n(c2=O)Cc2c-1nc1cc(F)c(C)c3c1c2[C@@H](N*)CC3

Key:
[1] = tested on: Meth A tumor-bearing mice; assay: Antitumor activity, Meth A tumor-bearing mice, single administration on day 7; assay type: in vivo, mouse
Method: (§1) Meth A tumor-bearing mice were prepared (7 mice per group) by subcutaneously transplanting 1×10^6 mouse fibrosarcoma Meth A cells into the right inguinal regions of BALB/c male mice (7-week old). On day 7, the drug complex of Example 9 dissolved in distilled water for injection was injected in the tail vein of the Meth A tumor-bearing mice every 4 days 4 times. On day 21 after the transplantation, tumor masses were excised and weighed to calculate the inhibition rate of tumor growth according to the following equation: inhibition rate of tumor growth (%)=[1-(average tumor weight of the group administered with the test sample/average tumor weight of control group)]×100.
Meth A tumor-bearing mice (6 mice per group) were prepared according to a similar manner to that of Example 11 and the antitumor activity was compared to that obtained by single administration of the drug complexes of Examples 8 and 9 once on day 7.
(§2) Meth A tumor-bearing mice (6 mice per group) were prepared according to a similar manner to that of Example 11 and the antitumor activity of the drug complex of Example 15 was examined by single administration in a similar manner to that of Example 12.
as §2, with “1,” for “11”, “41” for “15”, “in the cases of” for “by”, “12, and its antitumor activity was compared to that of the drug compound, per se.” for “12.”
Meth A tumor-bearing mice (6 mice per group) were prepared according to a similar manner to that of Example 11, and the antitumor activity was examined according to a similar method to that in Example 12 by single administration of the drug complexes of Examples 29, 43, and 44, respectively.

[2] = cited from earlier work
[3] = tested on: Meth A tumor-bearing mice; assay: Antitumor activity, Meth A tumor-bearing mice, i.v. every 4 days 4 times; assay type: in vivo, mouse; details: for Inhibition rate: calculated based on the drug compound, day 21
Method: as §1

SC-6 human gastric tumor = assay: Antitumor activity, SC-6 tumor-bearing nude mice, single i.v. administration; assay type: in vivo, human tumor in nude mice; details: for Inhibition rate / Numbers of died mice/mice used: calculated based on the drug compound
Method: (§3) SC-6 tumor-bearing nude mice (5 mice per group) were prepared by subcutaneously transplanting a piece of SC-6 human gastric tumor block into the right inguinal regions of nude mice (13AI,B/c-nu/nu, male). On day 27 after the transplantation, the drug complex of Example 15 dissolved in distilled water for injection was given as a single intravenous administration and its antitumor activity was compared to that of the drug compound, per se.

[4] = tested on: Meth A tumor-bearing mice; assay: Pharmacokinetics of the drug complex in Meth A tumor-bearing mice; assay type: in vivo, mouse; details: 10 mg/kg single, calculated as the drug compound
Method: Meth A tumor-bearing mice were prepared according to a similar manner to that of Example 11, the drug complex of Example 15 was given as single administration in a similar manner to that of Example 12 (10 mg/kg: calculated as the drug compound), and the change of the drug complex concentration in various tissues was determined.

Human lung cancer QG-90 = assay: Antitumor activity, human lung cancer QG-90-bearing nude mice, single i.v. administration; assay type: in vivo, human tumor in nude mice; details: for Inhibition rate / Numbers of died mice/mice used: calculated based on the drug compound
Method: as §3
Human lung cancer QG-90-bearing nude mice (5 mice per group) were prepared according to a similar manner to that of Example 53. On day 16 after the transplantaion, the drug complex of Example 15 dissolved in distilled water for injection was given as a single intravenous administration and its antitumor activity was compared to that of the drug compound, per se.

[5] = Example 11, every 4 days 4 times
[6] = single administration, compared to the drug compound, per se
[7] = single i.v., compared to the drug compound, per se

Molecule: CC[C@@]1(O)C(=O)OCc2c1cc1n(c2=O)Cc2c-1nc1cc(F)c(C)c3c1c2[C@@H](N)CC3 [DX-8951, (1S,9S)-1-amino-9-ethyl-5-fluoro-2,3-dihydro-9-hydroxy-4-methyl-1H,12H-benzo[de]pyrano[3',4':6,7]indolizino[1,2-b]quinoline-10,13(9H,15H)-dione, reference compound]
- Inhibition rate ([1]; Example 12 (Table 3), 20 mg/kg single): 59%
- Inhibition rate ([1]; Example 12 (Table 3), 60 mg/kg single): 77%
- lactone ring equilibrium ([2]; acidic aqueous medium, approximately at pH 3): compound whose lactone ring is closed
- lactone ring equilibrium ([2]; basic aqueous medium, approximately at pH 10): compound whose lactone ring is opened

Molecule: Carboxymethyldextran Polyalcohol-Gly-Gly-Phe-Gly-NH--A' (A--NH2 =DX-8951) [Example 9] ({carboxymethyldextran polyalcohol}-GGFG-Exatecan; also: N-terminus linked to carboxymethyldextran polyalcohol, C-terminus amide-linked to drug residue A' (DX-8951))
- Inhibition rate ([3]; 0.35 × 4 mg/kg): 41%
- Inhibition rate ([3]; 0.7 × 4 mg/kg): 59%
- Inhibition rate ([3]; 1.4 × 4 mg/kg): 94%
- antitumor activity (in words) [3, 5]: remarkably enhanced antitumor activity compared to the drug compound, per se
- toxicity (weight loss) [3, 5]: no toxicity (weight loss)
- Inhibition rate ([1]; Example 12 (Table 3), 2.5 mg/kg single, calculated based on the drug compound): 87%
- Inhibition rate ([1]; Example 12 (Table 3), 5 mg/kg single, calculated based on the drug compound): 98%
- antitumor activity (in words) [1, 6]: (Polysaccharide derivative)-Gly-Gly-Phe-Gly-NH--A'> (Polysaccharide derivative)-Gly-Gly-Gly-Phe-NH--A'> the drug compound, per se

Molecule: Carboxymethyldextran Polyalcohol-Gly-Gly-Phe-Gly-NH--A' (A--NH2 =DX-8951) [Example 15] ({carboxymethyldextran polyalcohol}-GGFG-Exatecan; also: N-terminus linked to carboxymethyldextran polyalcohol, C-terminus amide-linked to drug residue A' (DX-8951))
- Inhibition rate (SC-6 human gastric tumor; 2 mg/kg single i.v.): 71%
- Numbers of died mice/mice used (SC-6 human gastric tumor; 2 mg/kg single i.v.): 0/5
- Inhibition rate (SC-6 human gastric tumor; 8 mg/kg single i.v.): 100%
- Numbers of died mice/mice used (SC-6 human gastric tumor; 8 mg/kg single i.v.): 0/5
- death due to toxicity (in words) (SC-6 human gastric tumor; single i.v.): no death due to toxicity
- antitumor activity (in words) (SC-6 human gastric tumor; [7]): higher antitumor activity compared to the drug compound, per se
- Inhibition rate ([1]; Example 52 (table 4), 1.25 mg/kg single, calculated based on the drug compound): 83%
- Inhibition rate ([1]; Example 52 (table 4), 2.5 mg/kg single, calculated based on the drug compound): 95%
- Inhibition rate ([1]; Example 52 (table 4), 5 mg/kg single, calculated based on the drug compound): 99%
- Inhibition rate ([1]; Example 52 (table 4), 10 mg/kg single, calculated based on the drug compound): 100%
- antitumor activity (in words) [1, 6]: remarkably enhanced antitumor activity
- effective dose-range (in words) [1, 6]: broader effective dose-range
- distribution in tumor tissues [4]: high distribution in tumor tissues
- retention of blood level [4]: extremely long retention of blood level
- tumor selectivity against liver and small intestine [4]: high tumor selectivity against liver and small intestine
- Inhibition rate (Human lung cancer QG-90; 1.75 mg/kg single i.v.): 97%
- Numbers of died mice/mice used (Human lung cancer QG-90; 1.75 mg/kg single i.v.): 0/5
- Inhibition rate (Human lung cancer QG-90; 7 mg/kg single i.v.): 98%
- Numbers of died mice/mice used (Human lung cancer QG-90; 7 mg/kg single i.v.): 0/5
- antitumor activity (in words) (Human lung cancer QG-90; [7]): remarkably enhanced antitumor activity
- effective dose-range (in words) (Human lung cancer QG-90; [7]): broader effective dose-range
